# Test results reported in ChEMBL document CHEMBL1201862, “PubChem BioAssay data set” (2004).
#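 Cells were grown in 96-well plates and exposed to each compound for 48 hours at five concentrations; endpoints were interpolated linearly between bracketing concentrations, or set to the highest concentration if not reached. GI50: concentration for 50% inhibition of growth.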 Activity calls are given as the source filed them. Rule as the data show it: active = GI50 up to about 1.1 µM and inactive = higher.
# Experiments:
# Test in all cases: NCI tumour cell line growth inhibition, 48 h
# NCI/ADR-RES = tested on: NCI/ADR-RES
# DU-145 = tested on: DU-145
# T47D = tested on: T47D
# NCI-H460 = tested on: NCI-H460
# LOX IMVI = tested on: LOX IMVI
# UO-31 = tested on: UO-31
# TK-10 = tested on: TK-10
# NCI-H226 = tested on: NCI-H226
# BT-549 = tested on: BT-549
# MDA-N = tested on: MDA-N
# HCC 2998 = tested on: HCC 2998
# SK-OV-3 = tested on: SK-OV-3
# CAKI-1 = tested on: CAKI-1
# KM12 = tested on: KM12
# SW-620 = tested on: SW-620
# HT-29 = tested on: HT-29
# OVCAR-3 = tested on: OVCAR-3
# SNB-75 = tested on: SNB-75
# Malme-3M = tested on: Malme-3M
# OVCAR-4 = tested on: OVCAR-4
# OVCAR-8 = tested on: OVCAR-8
# HL-60 = tested on: HL-60
# MDA-MB-435 = tested on: MDA-MB-435
# 786-0 = tested on: 786-0
# A549 = tested on: A549
# NCI-H23 = tested on: NCI-H23
# OVCAR-5 = tested on: OVCAR-5
# MDA-MB-231 = tested on: MDA-MB-231
# UACC-62 = tested on: UACC-62
# K562 = tested on: K562
# MOLT-4 = tested on: MOLT-4
# HCT-116 = tested on: HCT-116
# SNB-19 = tested on: SNB-19
# Hs-578T = tested on: Hs-578T
# U-251 = tested on: U-251
# SF-268 = tested on: SF-268
# SR = tested on: SR
# SK-MEL-28 = tested on: SK-MEL-28
# SF-295 = tested on: SF-295
# IGROV-1 = tested on: IGROV-1
# A498 = tested on: A498
# SN12C = tested on: SN12C
# EKVX = tested on: EKVX
# COLO 205 = tested on: COLO 205
# UACC-257 = tested on: UACC-257
# PC-3 = tested on: PC-3
# M14 = tested on: M14
# ACHN = tested on: ACHN
# SF-539 = tested on: SF-539
# MCF7 = tested on: MCF7
# HOP-62 = tested on: HOP-62
# HCT-15 = tested on: HCT-15
# SK-MEL-2 = tested on: SK-MEL-2
# RXF 393 = tested on: RXF 393
# CCRF-CEM = tested on: CCRF-CEM
# HOP-92 = tested on: HOP-92
# SK-MEL-5 = tested on: SK-MEL-5
# NCI-H522 = tested on: NCI-H522
structure (smiles),measurement,setting,value
CCOC(=O)C1=NN(c2ccccc2)C(=O)/C1=C\NC(=S)C(N)=S,GI50,NCI/ADR-RES,> 100 µM (inactive)
same,GI50,DU-145,50.9 µM (inactive)
same,GI50,T47D,13.1 µM (inactive)
same,GI50,NCI-H460,49.3 µM (inactive)
same,GI50,LOX IMVI,37.8 µM (inactive)
same,GI50,UO-31,19.2 µM (inactive)
same,GI50,TK-10,36.2 µM (inactive)
same,GI50,NCI-H226,54.5 µM (inactive)
same,GI50,BT-549,35 µM (inactive)
same,GI50,MDA-N,32.8 µM (inactive)
same,GI50,HCC 2998,43.4 µM (inactive)
same,GI50,SK-OV-3,75.7 µM (inactive)
same,GI50,CAKI-1,38.1 µM (inactive)
same,GI50,KM12,70.6 µM (inactive)
same,GI50,SW-620,38.5 µM (inactive)
same,GI50,HT-29,41.8 µM (inactive)
same,GI50,OVCAR-3,38.5 µM (inactive)
same,GI50,SNB-75,47.3 µM (inactive)
same,GI50,Malme-3M,45.3 µM (inactive)
same,GI50,OVCAR-4,40.9 µM (inactive)
same,GI50,OVCAR-8,45.5 µM (inactive)
same,GI50,HL-60,38.9 µM (inactive)
same,GI50,MDA-MB-435,33.8 µM (inactive)
same,GI50,786-0,20.7 µM (inactive)
same,GI50,A549,66.1 µM (inactive)
same,GI50,NCI-H23,87.1 µM (inactive)
same,GI50,OVCAR-5,38.6 µM (inactive)
same,GI50,MDA-MB-231,65.2 µM (inactive)
same,GI50,UACC-62,29.3 µM (inactive)
same,GI50,K562,38 µM (inactive)
same,GI50,MOLT-4,26.4 µM (inactive)
same,GI50,HCT-116,20.5 µM (inactive)
same,GI50,SNB-19,64.9 µM (inactive)
same,GI50,Hs-578T,32.7 µM (inactive)
same,GI50,U-251,42.3 µM (inactive)
same,GI50,SF-268,38.5 µM (inactive)
same,GI50,SR,35.2 µM (inactive)
same,GI50,SK-MEL-28,39.8 µM (inactive)
same,GI50,SF-295,74.6 µM (inactive)
same,GI50,IGROV-1,42.6 µM (inactive)
same,GI50,A498,> 100 µM (inactive)
same,GI50,SN12C,37.8 µM (inactive)
same,GI50,EKVX,27.2 µM (inactive)
same,GI50,COLO 205,28.1 µM (inactive)
same,GI50,UACC-257,68.5 µM (inactive)
same,GI50,PC-3,47.5 µM (inactive)
same,GI50,M14,26.5 µM (inactive)
same,GI50,ACHN,21.5 µM (inactive)
same,GI50,SF-539,23.2 µM (inactive)
same,GI50,MCF7,36.1 µM (inactive)
same,GI50,HOP-62,> 100 µM (inactive)
same,GI50,HCT-15,34.1 µM
same,GI50,SK-MEL-2,43.1 µM (inactive)
same,GI50,RXF 393,29.2 µM (inactive)
same,GI50,CCRF-CEM,34.1 µM (inactive)
same,GI50,HOP-92,39.1 µM (inactive)
same,GI50,SK-MEL-5,19.6 µM (inactive)
same,GI50,NCI-H522,16.6 µM (inactive)
Cc1cc(C)c2c(n1)S(=O)(=O)N(CCCN1CCN(c3cccc(Cl)c3)CC1)C(C(=O)c1ccccc1)=C2O,GI50,NCI/ADR-RES,20.6 µM (inactive)
same,GI50,DU-145,36.7 µM (inactive)
same,GI50,T47D,38.8 µM (inactive)
same,GI50,NCI-H460,18.5 µM (inactive)
same,GI50,LOX IMVI,6.01 µM (inactive)
same,GI50,UO-31,19.2 µM (inactive)
same,GI50,TK-10,27 µM (inactive)
same,GI50,BT-549,52.6 µM (inactive)
same,GI50,MDA-N,25.9 µM (inactive)
same,GI50,SK-OV-3,33.7 µM (inactive)
same,GI50,CAKI-1,12.9 µM (inactive)
same,GI50,KM12,33.7 µM (inactive)
same,GI50,SW-620,31.8 µM (inactive)
same,GI50,HT-29,30.8 µM (inactive)
same,GI50,OVCAR-3,22.8 µM (inactive)
same,GI50,Malme-3M,64.3 µM (inactive)
same,GI50,OVCAR-4,24.7 µM (inactive)
same,GI50,OVCAR-8,36.6 µM (inactive)
same,GI50,HL-60,31.6 µM (inactive)
same,GI50,MDA-MB-435,27 µM (inactive)
same,GI50,786-0,19.5 µM (inactive)
same,GI50,A549,30.4 µM (inactive)
same,GI50,NCI-H23,28.4 µM (inactive)
same,GI50,OVCAR-5,45 µM (inactive)
same,GI50,MDA-MB-231,44.1 µM (inactive)
same,GI50,UACC-62,36.1 µM (inactive)
same,GI50,K562,35.6 µM (inactive)
same,GI50,MOLT-4,7.82 µM (inactive)
same,GI50,HCT-116,24.2 µM (inactive)
same,GI50,SNB-19,30.2 µM (inactive)
same,GI50,Hs-578T,65.8 µM (inactive)
same,GI50,U-251,37.6 µM (inactive)
same,GI50,SF-268,39 µM (inactive)
same,GI50,SR,17.1 µM (inactive)
same,GI50,SK-MEL-28,44.4 µM (inactive)
same,GI50,SF-295,31.8 µM (inactive)
same,GI50,IGROV-1,40.3 µM (inactive)
same,GI50,A498,28.8 µM (inactive)
same,GI50,SN12C,20 µM (inactive)
same,GI50,EKVX,26 µM (inactive)
same,GI50,COLO 205,18.7 µM (inactive)
same,GI50,UACC-257,19.3 µM (inactive)
same,GI50,PC-3,30.8 µM (inactive)
same,GI50,M14,25.6 µM (inactive)
same,GI50,ACHN,30.6 µM (inactive)
same,GI50,SF-539,40.6 µM (inactive)
same,GI50,MCF7,29.8 µM (inactive)
same,GI50,HOP-62,36.6 µM (inactive)
same,GI50,HCT-15,24.8 µM
same,GI50,SK-MEL-2,32.4 µM (inactive)
same,GI50,CCRF-CEM,25.9 µM (inactive)
same,GI50,HOP-92,25.8 µM (inactive)
same,GI50,SK-MEL-5,21.6 µM (inactive)
same,GI50,NCI-H522,24.8 µM (inactive)
